Literature values, collected in US10308663B2, “Inhibitors of PTP4A3 for the treatment of cancer” (University of Virginia Patent Foundation, priority 2015, dated 2019).

Test system: YOP(H?)
Settings: DiFMUP as a substrate; reported by Hoeger et al.; cited from earlier work

For `Nc1c[nH]c(=O)c2cc(-c3ccccc3)sc12` [Thienopyridone (5), 7-amino-2-phenylthieno[3,2-c]pyridin-4(5H)-one], the IC50 is listed as 61 µM.
